Values quoted from earlier work in patent US20210386978A1, “Drug Delivery Devices and Systems for Local Drug Delivery to the Upper Urinary Tract” (TARIS Biomedical LLC, priority 2018, published 2021).
Where a name gives a salt, the structure may show the parent alone.

details: solubility terms in the same block are defined in water at 37° C.

| SMILES | approximate solubility |
| --- | --- |
| Nc1ccn([C@@H]2O[C@H](CO)[C@@H](O)C2(F)F)c(=O)n1 [gemcitabine HCl] | ~80 mg/mL |
| Nc1ccn([C@@H]2O[C@H](CO)[C@@H](O)C2(F)F)c(=O)n1 [gemcitabine base] | ~15 mg/mL |
| Cc1ccc(O)c([C@H](CCN(C(C)C)C(C)C)c2ccccc2)c1 [tolterodine tartrate] | ~12 mg/mL |
| O=C(O[C@H]1C[C@H]2CC[C@@H](C1)[N+]21CCCC1)C(O)(c1ccccc1)c1ccccc1 [trospium chloride] | ~500 mg/mL |
